System: HepG2 tumors
Experiment: Anti-tumor efficacy in HepG2-tumor bearing nude mice
Format: in vivo, nu/nu BALB/c nude mice
Conditions: s.c. HepG2 tumors, i.v. 1 mg/kg dox equivalents every other day from day 2, tumor volume, FIG. 4
Protocol: Nude mice were inoculated s.c. with 4×10^6 HepG2 cells on day 0. On day 2, groups of five mice were injected intravenously with 1 mg/kg dox equivalents of D, DL or DLG. The control group received injections of saline (S). Injections were carried out every other day. The tumor size was measured weekly and the volume calculated using the formula 0.52×L×W×H. Each point represents the mean volume from each group of 5 mice.
Nude mice were inoculated s.c. with 4×10^6 HepG2 cells on day 0. On day 2, groups of five mice were injected intravenously with 1 mg/kg dox equivalents of D, DL or DLG. The control group received injections of saline. Injections were carried out every other day. All mice were sacrificed on day 35. The tumors were removed and weighted. Each column represents the mean ±s.d. (n=5). *p<0.05 statistically significant difference as compared to control (student's t-test).
Nude mice (body weight 20–25 g; 6–8 weeks) were inoculated subcutaneously (s.c.) with a suspension of HepG2 cells (4×10^6/mouse) on Day 0. On Day 2, groups of five mice were injected intravenously with 1 mg/kg equivalents of D, DL or DLG. The Control group received injections of saline. Injections were carried out every other day. Tumor volume was continuously monitored using a Vernier caliper. Measurements were taken weekly and volumes were calculated according to the formula (L×W×H×0.52). […]

Compound: COc1cccc2c1C(=O)c1c(O)c3c(c(O)c1C2=O)C[C@@](O)(C(=O)CO)C[C@@H]3O[C@H]1C[C@H](N)[C@H](O)[C@H](C)O1.Cl [D, doxorubicin hydrochloride]
- tumor growth inhibition: about 40%

— US7005139B2, “Compositions and methods for the targeted delivery of agents to treat liver cancer” (Hong Kong University of Science and Technology, priority 2001, dated 2006)
